Consider 60 compounds from patent publication US20050153989A1, “Pyrrolopyrimidine derivatives and analogs and their use in the treatment and prevention of diseases” (Ambit Biosciences Corporation, priority 2004, published 2005).

In general, IC50 refers to the point on the concentration scale where inhibition reaches its midpoint. The Kd is the free concentration of one partner at which half of the binding sites on the other are occupied at equilibrium, for simple one-to-one binding.

T1 sequence (P00533 25-1210): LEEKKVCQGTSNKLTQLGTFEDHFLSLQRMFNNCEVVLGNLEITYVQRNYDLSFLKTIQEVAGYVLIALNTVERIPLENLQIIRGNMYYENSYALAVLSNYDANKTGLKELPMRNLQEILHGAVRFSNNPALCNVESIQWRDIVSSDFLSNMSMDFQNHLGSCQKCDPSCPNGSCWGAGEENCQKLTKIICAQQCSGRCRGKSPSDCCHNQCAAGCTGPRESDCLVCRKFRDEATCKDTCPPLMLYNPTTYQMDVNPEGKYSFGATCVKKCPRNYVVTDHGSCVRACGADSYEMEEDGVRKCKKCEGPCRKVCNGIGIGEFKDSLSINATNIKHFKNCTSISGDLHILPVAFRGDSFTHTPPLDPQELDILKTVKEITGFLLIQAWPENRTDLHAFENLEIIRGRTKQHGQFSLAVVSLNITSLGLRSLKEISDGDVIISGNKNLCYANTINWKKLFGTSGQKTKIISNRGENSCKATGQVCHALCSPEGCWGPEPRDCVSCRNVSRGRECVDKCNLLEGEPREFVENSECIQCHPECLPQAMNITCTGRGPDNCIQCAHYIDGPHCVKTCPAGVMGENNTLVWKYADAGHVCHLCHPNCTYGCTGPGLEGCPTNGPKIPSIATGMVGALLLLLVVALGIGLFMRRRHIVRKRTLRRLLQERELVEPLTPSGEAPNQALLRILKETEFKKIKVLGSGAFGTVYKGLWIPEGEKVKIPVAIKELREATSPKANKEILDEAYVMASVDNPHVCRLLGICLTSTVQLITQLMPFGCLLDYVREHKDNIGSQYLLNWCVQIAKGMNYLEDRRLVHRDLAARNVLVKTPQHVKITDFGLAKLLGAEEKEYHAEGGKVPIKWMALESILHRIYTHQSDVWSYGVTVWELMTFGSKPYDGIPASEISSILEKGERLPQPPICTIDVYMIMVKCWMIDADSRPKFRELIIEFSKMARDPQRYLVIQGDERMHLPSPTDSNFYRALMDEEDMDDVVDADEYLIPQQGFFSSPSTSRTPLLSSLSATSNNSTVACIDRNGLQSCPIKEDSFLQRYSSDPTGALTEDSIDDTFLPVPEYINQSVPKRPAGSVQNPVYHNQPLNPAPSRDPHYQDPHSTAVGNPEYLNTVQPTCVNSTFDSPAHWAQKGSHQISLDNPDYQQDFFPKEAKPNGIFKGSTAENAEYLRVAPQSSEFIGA

The target in one experiment is T1, EGFR (Homo sapiens, UniProt P00533). Description: EGFR autophosphorylation (tyrosine 1173) inhibition assay in lung cancer cell line A459. As to conditions: EGF-induced phosphorylation of tyrosine 1173. The experiment is classed as cell-based. Details: 3.6×10^5 A549 cells/well in a 24-well culture plate; endogenous in cells. As for the experimental part:
(§1) Cells were stimulated by the addition of 5 ng/ml of EGF for five minutes. Cells were then washed with cold phosphate buffered saline (PBS), and incubated for 30 minutes at 4° C. in lysis buffer. […] Total EGFR levels were also measured in the same manner to control for protein level differences.
For the compound `COc1ccc(-c2cc3c(N[C@@H](C)c4ccccc4)ncnc3n2C(C)C)cc1` [Compound D10], the IC50 was under 100 nM.

Take `C[C@H](Nc1ncnc2c1[nH]c1ccccc12)c1ccccc1` [Compound C2]: the 50% inhibitory concentration (IC50) fell in the range of 1000 to 10000 nM.

Another experiment concerns the target T1, EGFR. The experiment is described as follows: EGFR autophosphorylation (tyrosine 1173) inhibition assay in A431 cells. It is filed as cell-based. As to conditions: Epidermoid Carcinoma Cell Line A431; EGF-induced phosphorylation of tyrosine 1173. Set-up: 4×10^4 A431 cells/well in a 96-well culture plate; endogenous in cells; host or cells: A431. As for the experimental part:
as §1
The compound `COc1ccc(-c2cc3c(N[C@@H](C)c4ccccc4)ncnc3n2C(C)C)cc1` [Compound D10] showed an IC50 of 100 to 1000 nM.

With `COc1ccc(-c2cc3c(Nc4cccc(C)c4)ncnc3[nH]2)cc1` [Compound S10], the concentration for half-maximal inhibition (IC50) was under 100 nM.

`C[C@@H](Nc1ncnc2oc(-c3ccccc3)c(-c3ccccc3)c12)c1ccccc1` [Compound H1, (5,6-Diphenyl-furo[2,3-d]pyrimidin-4-yl)-(1-phenyl-ethyl)-amine] gave an IC50 of 100 to 1000 nM.

`CC(Nc1ncnc2oc(-c3ccccc3)c(-c3ccccc3)c12)c1ccccc1` (centres unmarked) [Compound H3] showed an IC50 of 100 to 1000 nM.

The compound `C[C@H](Nc1ncnc2c1[nH]c1ccccc12)c1ccccc1` [Compound C2] yielded an IC50 of 100 to 1000 nM.

`Cc1cc(C)cc(Nc2ncnc3[nH]c(-c4ccc(Br)cc4)cc23)c1` [Compound S39] yielded a 50% inhibitory concentration (IC50) of 100 to 1000 nM.

Another experiment addresses T1, EGFR. The experiment is described as follows: Binding constant (Kd) measurement, T7 phage-displayed kinase competition binding, wildtype EGFR. Details: made in house. Conditions: read-out: Kd for EGFR (DKIN) Binding. The source says:
Methods for measuring binding affinities for interactions between small molecules and kinases including FLT3, c-KIT, ABL(T334I) [a.k.a. […] The components of the assays include human kinases expressed as fusions to T7 bacteriophage particles and immobilized ligands that bind to the ATP site of the kinases. […] If the test compound binds the kinase it competes with the immobilized ligand and prevents binding to the solid support. […] The results are read out by quantitating the amount of fusion protein bound to the solid support, which is accomplished by either traditional phage plaque assays or by quantitative PCR (qPCR) using the phage genome as a template.
The term “ND” represents non-determined values.
To measure the Kd values, the T7 phage displaying human EGFR were incubated with an […] affinity matrix in the presence of various concentrations of a soluble (non-immobilized) compounds provided herein, as described in detail herein.
For `COc1ccc(-c2cc3c(N[C@@H](C)c4ccccc4)ncnc3n2C(C)C)cc1` [Compound D10], the Kd was under 100 nM.

For `COc1cccc(-c2cc3c(Nc4ccc(Cl)cc4)ncnc3[nH]2)c1` [Compound S23], the Kd is under 100 nM.

On to `Oc1ccc(-c2cc3c(Nc4ccc(F)cc4)ncnc3[nH]2)cc1` [Compound S37], for which the Kd is under 100 nM.

As to `COC(=O)c1cccc(Nc2ncnc3[nH]c(-c4ccc(OC)cc4)cc23)c1` [Compound S4], the Kd is under 100 nM.

Regarding `O=C(O)c1cccc(Nc2ncnc3[nH]c(-c4ccc(O)cc4)cc23)c1` [Compound S31], the equilibrium dissociation constant (Kd) is 1000 to 10000 nM.

In the case of `COc1cccc(-c2cc3c(NCc4cccc(C)c4)ncnc3[nH]2)c1` [Compound I12], the equilibrium dissociation constant (Kd) was 100 to 1000 nM.

For the compound `COc1ccc(-c2cc3c(Nc4cccc(C)c4)ncnc3[nH]2)cc1` [Compound S10], the Kd was under 100 nM.

For the compound `COc1cccc(-c2cc3c(NCc4ccccc4)ncnc3[nH]2)c1` [Compound I14], the Kd was under 100 nM.

On to `Cc1cccc(CNc2ncnc3[nH]c(-c4ccc(O)cc4)cc23)c1` [Compound I20], for which the dissociation constant (Kd) is under 100 nM.

For the compound `Oc1ccc(-c2cc3c(NCCc4ccccc4)ncnc3[nH]2)cc1` [Compound I22], the Kd is under 100 nM.

For the compound `Cc1cc(C)cc(Nc2ncnc3[nH]c(-c4ccc(O)cc4)cc23)c1` [Compound S30], the Kd is under 100 nM.

In the case of `COc1cccc(CNc2ncnc3nc[nH]c23)c1` [Compound G15], the dissociation constant Kd was over 10000 nM.

Turning to `COc1ccc(-c2cc3c(Nc4cccc(C(F)(F)F)c4)ncnc3[nH]2)cc1` [Compound I5], the dissociation constant (Kd) is under 100 nM.

For the compound `Oc1ccc(-c2cc3c(Nc4cccc(O)c4)ncnc3[nH]2)cc1` [Compound S33], the Kd is under 100 nM.

`COc1ccc(C(C)Nc2ncnc3[nH]c(-c4ccc(O)cc4)cc23)cc1` (centres unmarked) [Compound I23]: the equilibrium dissociation constant (Kd) lay in the range of 1000 to 10000 nM.

Consider `C[C@@H](Nc1ncnc2oc(-c3ccccc3)c(-c3ccccc3)c12)c1ccccc1` [Compound H1, (5,6-Diphenyl-furo[2,3-d]pyrimidin-4-yl)-(1-phenyl-ethyl)-amine], for which the Kd was under 100 nM.

On to `COc1ccc(-c2cc3c(N[C@H](C)c4ccccc4)ncnc3[nH]2)cc1` [Compound M21], for which the dissociation constant Kd is under 100 nM.

In the case of `CC(Nc1ncnc2oc(-c3ccccc3)c(-c3ccccc3)c12)c1ccccc1` (centres unmarked) [Compound H3], the dissociation constant (Kd) is under 100 nM.

Consider `C[C@H](Nc1ncnc2c1[nH]c1ccccc12)c1ccccc1` [Compound C2], for which the Kd is under 100 nM.

For the compound `COc1ccc(Cn2c(-c3ccc(OC)cc3)cc3c(Nc4cccc(O)c4)ncnc32)cc1` [Compound K7], the dissociation constant Kd lay within 1000 to 10000 nM.

In the case of `C[C@H](Nc1ncnc2[nH]c(-c3ccc(Br)cc3)cc12)c1ccccc1` [Compound I24], the dissociation constant Kd was under 100 nM.

As for `Oc1ccc(-c2cc3c(Nc4cccc(F)c4)ncnc3[nH]2)cc1` [Compound S35], the Kd was under 100 nM.

Take `COc1ccc(-c2cc3c(NCCc4ccccc4)ncnc3[nH]2)cc1` [Compound I8]: the Kd was 100 to 1000 nM.

In the case of `COc1cccc(Nc2ncnc3[nH]c(-c4ccc(Br)cc4)cc23)c1` [Compound S42], the dissociation constant (Kd) is 100 to 1000 nM.

`COc1cccc(-c2cc3c(Nc4ccc(F)cc4)ncnc3[nH]2)c1` [Compound S24]: the Kd is under 100 nM.

As to `COc1ccc(-c2cc3c(NC(C)c4ccccc4)ncnc3[nH]2)cc1` (centres unmarked) [Compound M24], the Kd lay in the range of 100 to 1000 nM.

`Fc1ccc(Nc2ncnc3c2[nH]c2ccccc23)cc1Cl` [Compound C14]: the Kd is 100 to 1000 nM.

For `Cn1c(-c2ccc(O)cc2)cc2c(Nc3cccc(Br)c3)ncnc21` [Compound Q7], the Kd fell in the range of 1000 to 10000 nM.

As to `COc1cccc(Nc2ncnc3[nH]c(-c4cccc(OC)c4)cc23)c1` [Compound S21], the Kd is under 100 nM.

`COc1ccc(-c2nc3c(NCc4cccc(C)c4)ncnc3[nH]2)cc1` [Compound I4]: the dissociation constant Kd is 100 to 1000 nM.

Regarding `COC(=O)c1cccc(Nc2ncnc3[nH]c(-c4ccc(O)cc4)cc23)c1` [Compound S32], the dissociation constant (Kd) is 100 to 1000 nM.

`Cc1cc(C)cc(Nc2ncnc3[nH]c(-c4ccc(Br)cc4)cc23)c1` [Compound S39]: the dissociation constant Kd lay within 100 to 1000 nM.

Regarding `COc1ccc(-c2cc3c(Nc4cc(Cl)cc(Cl)c4)ncnc3[nH]2)cc1` [Compound S2], the equilibrium dissociation constant (Kd) lay within 100 to 1000 nM.

Take `COc1cccc(-c2cc3c(Nc4ccc(C)cc4)ncnc3[nH]2)c1` [Compound S28]: the dissociation constant Kd is under 100 nM.

Take `COc1ccc(-c2cc3c(Nc4cccc(C(=O)O)c4)ncnc3[nH]2)cc1` [Compound S3]: the Kd is under 100 nM.

For the compound `COc1ccc(Cn2c(-c3ccc(OC)cc3)cc3c(NCc4cccc(Cl)c4)ncnc32)cc1` [Compound M20], the Kd was in the range of 1000 to 10000 nM.

On to `COc1cccc(CNc2ncnc3[nH]c(-c4ccc(O)cc4)cc23)c1` [Compound I19], for which the Kd was 100 to 1000 nM.

On to `COc1ccc(-c2cc3c(Nc4ccc(Cl)c(C(F)(F)F)c4)ncnc3[nH]2)cc1` [Compound S8], for which the dissociation constant Kd was under 100 nM.

Consider `COC(=O)C(Nc1ncnc2[nH]c(-c3ccc(OC)cc3)cc12)c1ccccc1` (centres unmarked) [Compound I7], for which the Kd fell in the range of 100 to 1000 nM.

As to `COc1cccc(-c2cc3c(Nc4cc(C)cc(C)c4)ncnc3[nH]2)c1` [Compound S13], the Kd was under 100 nM.

For the compound `COc1cccc(-c2cc3c(Nc4ccc(Cl)c(Cl)c4)ncnc3[nH]2)c1` [Compound S19], the Kd is under 100 nM.

`COc1ccc(-c2cc3c(N[C@@H](C)c4ccccc4)ncnc3n2C)cc1` [Compound D9]: the equilibrium dissociation constant (Kd) was over 10000 nM.

Turning to `C[C@H](Nc1ncnc2[nH]c(-c3ccc(O)cc3)cc12)c1ccccc1` [Compound I9], the Kd lay within 1000 to 10000 nM.

Regarding `Clc1cc(Cl)cc(Nc2ncnc3[nH]c(-c4ccc(Br)cc4)cc23)c1` [Compound S38], the Kd is 1000 to 10000 nM.

With `Clc1cccc(Nc2ncnc3[nH]cnc23)c1` [Compound G12], the Kd was over 10000 nM.

Take `CC(Nc1ncnc2[nH]c(-c3ccc(O)cc3)cc12)c1ccccc1` (centres unmarked) [Compound I18]: the Kd is under 100 nM.

Consider `COc1cccc(-c2cc3c(NCc4cccc(Cl)c4)ncnc3[nH]2)c1` [Compound I11], for which the equilibrium dissociation constant (Kd) is under 100 nM.

For `COc1cccc(-c2cc3c(NCc4ccc(Cl)cc4)ncnc3[nH]2)c1` [Compound I16], the dissociation constant Kd was under 100 nM.

Take `COc1ccc(Cn2c(-c3ccc(OC)cc3)cc3c(Nc4cccc(F)c4)ncnc32)cc1` [Compound K8]: the Kd lay within 1000 to 10000 nM.

`COc1cccc(-c2cc3c(Nc4cccc(O)c4)ncnc3[nH]2)c1` [Compound S16]: the dissociation constant (Kd) was under 100 nM.

Take `O=C(O)c1cccc(Nc2ncnc3[nH]cnc23)c1` [Compound G6]: the Kd was over 10000 nM.

`Oc1ccc(-c2cc3c(NCc4ccccc4)ncnc3[nH]2)cc1` [Compound I21]: the Kd is under 100 nM.

As for `COc1cccc(Nc2ncnc3[nH]c(-c4ccc(O)cc4)cc23)c1` [Compound S36], the dissociation constant (Kd) was under 100 nM.

As for `COc1ccc(Cn2c(-c3ccc(OC)cc3)cc3c(Nc4cc(C)cc(C)c4)ncnc32)cc1` [Compound K6], the equilibrium dissociation constant (Kd) fell in the range of 1000 to 10000 nM.

Turning to `COc1ccc(-c2cc3c(N[C@H](C)c4ccccc4)nc(N[C@@H](C)c4ccccc4)nc3[nH]2)cc1` [Compound M22], the Kd was under 100 nM.

`COc1cccc(-c2cc3c(Nc4ccccc4)ncnc3[nH]2)c1` [Compound S27]: the Kd is under 100 nM.

In the case of `Clc1ccc(Nc2ncnc3[nH]cnc23)cc1Cl` [Compound G3], the equilibrium dissociation constant (Kd) lay in the range of 1000 to 10000 nM.

Regarding `COC(=O)c1cccc(Nc2ncnc3[nH]c(-c4cccc(OC)c4)cc23)c1` [Compound S15], the Kd was over 10000 nM.

Take `COc1ccc(C(C)Nc2ncnc3[nH]c(-c4cccc(OC)c4)cc23)cc1` (centres unmarked) [Compound I17]: the Kd is 1000 to 10000 nM.

Regarding `COc1cccc(-c2cc3c(Nc4cccc(F)c4)ncnc3[nH]2)c1` [Compound S22], the dissociation constant (Kd) is under 100 nM.
